Measured values: publication PMC3615092, “Identification, Design and Bio-Evaluation of Novel Hsp90 Inhibitors by Ligand-Based Virtual Screening” (PLoS ONE, 2013)
Each block holds one compound with its values, some of them ahead of it.

Legend:
Hsp90 [1] = molecular target: T1, Hsp90 (Homo sapiens, UniProt P07900); assay: Malachite green assay of Hsp90 ATPase activity; format: biochemical; conditions: for IC50: by malachite green assay; for inhibition at 40 µM: read-out: Inhibition rate (% in 40 μM)
T1 construct: The region encoding full-length Hsp90 was subcloned into pET28a; inferred from the pET28a vector and Ni-NTA purification; made in house; host or cells: E. coli
Experimental: The region encoding full-length Hsp90 was subcloned into pET28a. Protein expression in E. coli cells were induced with 0.5 mM IPTG. Cells were harvested after 20h of growth at 16°C and then disrupted by sonication. The soluble lysate was clarified by centrifugation and applied to a Ni^2+-nitrilo-triacetic acid (NTA) agarose column in a buffer (50 mM Tris-Cl, 300 mM NaCl, 10 mM Imidazole, 10% [v/v] Glycerol, 10 mM PMSF, 10 mM DTT). Hsp90 Protein was eluted with a linear gradient of 20–1000 mM imidazole. Hsp90 was identified by SDS-PAGE, and the high concentrated fraction was dialyzed against ATPase buffer (20 mM Tris-Cl, pH 7.5; 6 mM MgCl2; 20 mM KCl) and then aliquoted, frozen in liquid nitrogen, stored at −80°C.
The test compounds were diluted from mother plates (10 mM in 100% (v/v) DMSO) into daughter plates (200 μM in 2.0% (v/v) DMSO); 5 μL of test compound solution was added to each well (equivalent to a final concentration of 40 μM) of the 96-well assay plate. The first and last rows of the 96-well plate contained the appropriate concentration of DMSO were used as blank control. ATP was dissolved in the assay buffer to give a stock concentration of 2.5 mM and stored at room temperature. A 10 μL aliquot of ATP solution was added to each well to give a final assay concentration of 1 mM. Before the usage, Hsp90 protein was thawed on ice and suspended in chilled assay buffer to a stock concentration of 0.45 mg/mL, and the solution was kept on ice. The incubation was started by adding 10 μL of the stock Hsp90 to each well (except for the background wells which received 10 μL of assay buffer), giving a final assay volume of 25 μL. The plates were shaken for approximately 2 min and incubated for 3 h at 37°C.
The assay procedures were based on the literatures [33]–[35]. […] The reagent is initially dark brown, but on standing for ∼2 h at room temperature changes to a golden yellow and is ready for use. The assay buffer was 100 mM Tris–HCl, 20 mM KCl, 6 mM MgCl2, pH 7.4.
To stop the ATPase reactions, 80 μL of the malachite green reagent was added to each well.

Hsp90 [2] = molecular target: T1, Hsp90; assay: ATP hydrolysis inhibition, ADP Hunter Plus (ADP fluorescence) assay; format: biochemical; conditions: by ADP fluorescence assay
Experimental: The first and last rows of the 96-well plate contained the appropriate concentration of DMSO were used as blank control. ATP was dissolved in the assay buffer to give a stock concentration of 2.5 mM and stored at room temperature. A 10 μL aliquot of ATP solution was added to each well to give a final assay concentration of 1 mM. Before the usage, Hsp90 protein was thawed on ice and suspended in chilled assay buffer to a stock concentration of 0.45 mg/mL, and the solution was kept on ice. […] The plates were shaken for approximately 2 min and incubated for 3 h at 37°C. The Discover RX ADP Hunter^TM Plus Assay kit (Discoverx, Fremont, CA) was used following the manufacturer's instructions. ATPase reactions were carried out after 3 h at 37°C temperature in presence of different concentrations of compounds. ADP generation was measured using Varioskan multimode microplate spectrophotometer (540 nm excitation and 620 nm emission). […] The background reaction rate was measured in a reaction lacking enzyme or substrate and subtracted from the experimental rates.

Hsp70 = molecular target: T2, Hsp70 (Homo sapiens, UniProt P0DMV8); assay: Hsp70 ATPase activity assay (ADP Hunter Plus); format: biochemical; conditions: for IC50: ADP Hunter Plus assay; for selectivity HSP90 over HSP70: ratio of IC50 HSP70 / HSP90, ADP fluorescence assay
T2 construct: purchased Enzo Life science ALX-201-214-C025
T2 sequence (P0DMV8 whole entry): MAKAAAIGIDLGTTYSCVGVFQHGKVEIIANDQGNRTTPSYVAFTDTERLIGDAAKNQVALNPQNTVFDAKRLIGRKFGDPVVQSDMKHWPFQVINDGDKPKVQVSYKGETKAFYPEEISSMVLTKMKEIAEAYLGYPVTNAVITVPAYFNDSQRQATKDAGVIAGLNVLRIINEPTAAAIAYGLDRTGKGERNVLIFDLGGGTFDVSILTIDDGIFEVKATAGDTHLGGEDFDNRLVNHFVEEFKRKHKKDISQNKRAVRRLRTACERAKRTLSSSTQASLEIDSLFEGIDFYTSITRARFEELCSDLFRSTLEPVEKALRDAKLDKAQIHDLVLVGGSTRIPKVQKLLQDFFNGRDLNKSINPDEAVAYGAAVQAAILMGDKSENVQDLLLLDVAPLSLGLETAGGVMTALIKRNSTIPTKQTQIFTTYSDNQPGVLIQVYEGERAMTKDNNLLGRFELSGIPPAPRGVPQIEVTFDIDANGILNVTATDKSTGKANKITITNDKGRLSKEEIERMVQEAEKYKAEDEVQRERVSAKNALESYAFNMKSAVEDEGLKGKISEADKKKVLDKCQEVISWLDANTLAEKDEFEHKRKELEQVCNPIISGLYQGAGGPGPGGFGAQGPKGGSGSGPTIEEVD
Text: The following materials were used for the biological evaluation: The PET-28a HSP90 expression vector was constructed. The Ni^2+-nitrilo-triacetic acid (NTA) agarose was purchased from General Electric (USA). […] Isopropyl-1-thio-d-galactopyranoside (IPTG) was purchased from Sigma (St. Lousi. MO). Antibodies of β-Actin, Hsp70, Hsp90, c-Raf, Akt, Src, Phospho-Src, ERK and Her-2 were purchased from Cell Signaling Technology (Danvers, MA). Anti-p-Akt(S473) was purchased from Signalway Antibody (Baltimore, MD). HIF-1α antibody was purchased from R&D systems. The stock solution of Hsp90 was prepared in a 20 mM Tris-Cl buffer with a pH 7.4, and concentration was fixed at 5.0 μM. […] The screened out compounds were purchased from SPECS and dissolved in DMSO (Sigma, St. Louis, MO) to make a final concentration of 10^−2 mol/L and were stored at −20°C. […] The water used in the experiments was thrice-distilled and all other materials were of analytical reagent grade.
Hsp70 ATPase activity was measured using Discover RX ADP Hunter^TM Plus Assay kit assay as descripted in the manufacturer's instructions. Breifly, Hsp70 (3 μM) was incubated with 1 mM ATP in 100 mM Tris pH 7.4 at 37°C for 3 h in the presence or absence of various concentrations of test compounds. ADP generation was measured using Varioskan multimode microplate spectrophotometer (540 nm excitation and 620 nm emission). Fluorescence intensity values measured for Hsp70 without any testing compound was assumed as 100% of enzyme activity. The background reaction rate was measured in a reaction lacking enzyme or substrate and subtracted from the experimental rates.

A549 = assay: Anti-proliferation MTT assay; format: cell-based
Experimental: (§1) Cell viabilities were measured by a colorimetric assay using 3-(4, 5-dimethylthiaz-ol-2-yl)-2,5-diphenyltetrazoliumbromide (MTT, Sigma, Ltd.) as described previously. Experiments were carried out in triplicate in a parallel manner for each concentration of target compounds and the results were presented as mean ± SE. Control cells were given only culture media. After incubation for 48 h, absorbance (A) was measured at 570 nm. Survival ratio (%) was calculated using the following equation: survival ratio (%) = (Atreatment/Acontrol) × 100%.

HCT116 = assay: Anti-proliferation MTT assay; format: cell-based
Experimental: as §1

HepG2 = assay: Anti-proliferation MTT assay; format: cell-based
Experimental: as §1

MCF-7 = assay: Anti-proliferation MTT assay; format: cell-based
Experimental: as §1

MDA-MB-231 = assay: Anti-proliferation MTT assay; format: cell-based
Experimental: as §1

SK-BR-3 = assay: Anti-proliferation MTT assay; format: cell-based
Experimental: as §1

[3] = 40 μM, colorimetric assay for inorganic phosphate
[4] = colorimetric assay for inorganic phosphate, 40 μM

SMILES: CC(C)c1cc(C(=O)N2Cc3ccc(CN4CCN(C)CC4)cc3C2)c(O)cc1O [AT13387]
- IC50 (Hsp90 [1]): 0.37 ± 0.05 µM
- IC50 (Hsp90 [2]): 0.34 ± 0.08 µM
- IC50 (Hsp70): 16.3 ± 1.2 µM
- selectivity HSP90 over HSP70 (Hsp70): over 47 times

SMILES: CO[C@H]1/C=C\C=C(/C)C(=O)NC2=CC(=O)C(NCCN(C)C)=C(C[C@@H](C)C[C@H](OC)[C@H](O)[C@@H](C)/C=C(\C)[C@@H]1OC(N)=O)C2=O [Compound 17-DMAG, 17-Dimethylamino-ethylamino-17-demethoxygeldanamycin]
- Inhibition rate (% in 40 μM) (Hsp90 [1]; [3]): 90%
- IC50 (A549; 48 h): 0.057 µM
- IC50 (HCT116; 48 h): 0.26 µM
- IC50 (HepG2; 48 h): 0.49 µM
- IC50 (MCF-7; 48 h): 0.037 µM
- IC50 (MDA-MB-231; 48 h): 0.048 µM
- IC50 (SK-BR-3; 48 h): 1.21 µM

SMILES: CN(C)S(=O)(=O)N1CCN(CC(O)COc2ccc3cc(Br)ccc3c2)CC1 (stereo not drawn) [Compound S1]
- inhibition at 40 µM (Hsp90 [1]; [3]): > 50%
- IC50 (Hsp90 [1]): 2.44 ± 0.33 µM
- IC50 (Hsp90 [2]): 1.61 µM
- IC50 (Hsp70): 28.2 ± 2.27 µM
- selectivity HSP90 over HSP70 (Hsp70): over 15 times
- IC50 (A549; Homo sapiens, A549, 48 h): 25.9 µM
- IC50 (HCT116; Homo sapiens, HCT-116, 48 h): 4.66 µM
- IC50 (HepG2; Homo sapiens, HepG2, 48 h): 2.27 µM
- IC50 (MCF-7; Homo sapiens, MCF7, 48 h): 3.79 µM
- IC50 (MDA-MB-231; Homo sapiens, MDA-MB-231, 48 h): 2.27 µM
- IC50 (SK-BR-3; Homo sapiens, SK-BR-3, 48 h): 15.8 µM

SMILES: CCCCCOc1cccc(C2C(C(=O)c3cccs3)=C(O)C(=O)N2CCN2CCOCC2)c1 (stereo not drawn) [Compound S6]
- inhibition at 40 µM (Hsp90 [1]; [3]): -7.53%

SMILES: O=C(NNC1CC(=O)N(c2ccc(Br)cc2)C1=O)c1cccnc1 (stereo not drawn) [Compound S7]
- inhibition at 40 µM (Hsp90 [1]; [3]): -35.1%

SMILES: COc1cccc(CNc2nc(SC)ncc2CO)c1 [Compound S16]
- inhibition at 40 µM (Hsp90 [1]; [3]): -6.22%

SMILES: COCCN1C(=O)C(O)=C(C(=O)c2ccc3c(c2)CC(C)O3)C1c1cccc(OC)c1 (stereo not drawn) [Compound S17]
- inhibition at 40 µM (Hsp90 [1]; [3]): 48.8%
- Hsp90 inhibition activity (in words) (Hsp90 [1]; [4]): moderate

Now from value to compound:

- inhibition at 40 µM (Hsp90 [1]; [3]): -11.6%
SMILES: COc1ccc(CNC(=O)CSc2nc3ccc(N)cc3s2)cc1 [Compound S3]

- inhibition at 40 µM (Hsp90 [1]; [3]): 48.2%
- Hsp90 inhibition activity (in words) (Hsp90 [1]; [4]): moderate
SMILES: COCCCN1C(=O)C(O)=C(C(=O)c2ccc(OC(C)C)c(C)c2)C1c1cccnc1 (stereo not drawn) [Compound S4]

- inhibition at 40 µM (Hsp90 [1]; [3]): -14.5%
SMILES: CCCOc1ccc(C(=O)C2=C(O)C(=O)N(Cc3cccnc3)C2c2ccccc2)cc1 (stereo not drawn) [Compound S5]

- inhibition at 40 µM (Hsp90 [1]; [3]): -47.8%
SMILES: COc1ccc(-c2csc3ncn(CC(=O)Nc4ccc(C)cc4C)c(=O)c23)cc1OC [Compound S9]

- inhibition at 40 µM (Hsp90 [1]; [3]): 36%
SMILES: CCOc1ccc(-c2csc3ncn(CC(=O)Nc4cc(C)ccc4C)c(=O)c23)cc1 [Compound S10]

- inhibition at 40 µM (Hsp90 [1]; [3]): 42.8%
- Hsp90 inhibition activity (in words) (Hsp90 [1]; [4]): moderate
SMILES: COc1ccc(-c2csc3ncn(CC(=O)NC4CCCCC4)c(=O)c23)cc1OC [Compound S11]

- inhibition at 40 µM (Hsp90 [1]; [3]): 12.6%
SMILES: CCOC(=O)C1=C(Nc2ccc(OC)cc2)S/C(=C\c2ccc[nH]2)C1=O [Compound S12]

- inhibition at 40 µM (Hsp90 [1]; [3]): 47.5%
- Hsp90 inhibition activity (in words) (Hsp90 [1]; [4]): moderate
SMILES: Cc1ccc(S(=O)(=O)N2CCN(CC(O)COc3ccc(-c4ccccc4)cc3)CC2)cc1C (stereo not drawn) [Compound S14]

- inhibition at 40 µM (Hsp90 [1]; [3]): 18.9%
SMILES: Cc1cccc(OCCn2c(SCC(O)CO)nc3ccccc32)c1 (stereo not drawn) [Compound S15]
